Reference: article PMC12155760, “A cobalamin-dependent pathway of choline demethylation from the human gut acetogen Eubacterium limosum [drawing 1]” (The Journal of Biological Chemistry, 2025)

Columns and labels:
MthA = molecular target: T1, MthA (Eubacterium limosum, UniProt A0AAC9QR60); assay: HPLC, methyl-THF formation; format: biochemical; conditions: 5 mM THF, MthB, MthC, RamQ, Ti(III)citrate, ATP, 50 mM phosphocholine, MOPS pH 7.0, 24 °C
T1 construct: gene B2M23_01055
T1 sequence (A0AAC9QR60 1-264): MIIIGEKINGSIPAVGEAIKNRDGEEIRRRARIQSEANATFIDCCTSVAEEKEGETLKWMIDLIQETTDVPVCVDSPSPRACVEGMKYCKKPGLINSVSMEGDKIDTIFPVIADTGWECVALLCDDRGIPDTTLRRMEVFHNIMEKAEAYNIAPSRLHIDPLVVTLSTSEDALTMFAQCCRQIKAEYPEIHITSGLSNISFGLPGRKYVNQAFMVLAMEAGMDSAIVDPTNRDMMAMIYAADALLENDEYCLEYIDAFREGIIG

MthB = assay: UV/Vis, methyl-Co(III)-MthC formation at […] nm; format: biochemical, Eubacterium limosum; conditions: co-substrate 30 μM Co(I)-MthC, RamQ, Ti(III)citrate, 2 mM ATP, MOPS pH 7.2, 37 °C; read-out: apparent KM
purified protein = substrate: C[N+](C)(C)CCO; assay: purified protein; format: biochemical, Eubacterium limosum; conditions: 5 mM ATP, 10 mM MgCl2, 100 mM KCl, glycine-NaOH pH 9.0

Q: Which “HPLC, methyl-THF formation” value (MthA) does the source give for `Nc1nc2c(c(=O)[nH]1)N[C@@H](CNc1ccc(C(=O)N[C@@H](CCC(=O)O)C(=O)O)cc1)CN2` [THF] here?
A: the further addition of MthA allowed the methylation of THF with phosphocholine as assayed by HPLC

Q: For `C[N+](C)(C)CCOP(=O)([O-])O` [phosphocholine], which Km (MthB) is on record?
A: 11.3 ± 1.9 mM

B1: MthK (Eubacterium limosum) (protein)
chain: MVDGKFIEMQTEIMKNYPPANAQALLNIFNAASGMQEYLDNVLAKTRESYLYTQLRDLVENYYDIGTLLDVYQIFGGYINTSFGIYTEKNGKKQTWFVRKYKNGKELESLLFEHSMLKYAKENGFSYGAVPIPAKDGKTYHEVTETTTEGETKSYFAVFNFVGGKAHYDWIPNWANAGVADLTVISAAKSLAEFHNSTRGFDPEGRHGDNIMDNEDITVNEIIRKFPKTLKEYRKSYAEAGFENVYTEYYDANYDYFAKMCERSVIPDVDYDTMVSNVCHCDFHPGNFKYLDNGEVCGSFDYDMAKIDSRLFELGLAIHYCFSSWLSDTNGIINLDRASLFVKTYDEELHKAGGIEPLTDIEKKYLYEVTVQGALYDLGWCSSACVYDSTLDPYEYLFYTQHFVACLKWLEANEAAFRKAFD
Q: For B1, which Km (purified protein) is on record?
A: 0.0028 ± 0.0002 mM

Q: What about the kcat (purified protein) of the same molecule?
A: 13.8 ± 0.28 s⁻¹
